Reference: article PMC7108740, “Exploring the molecular structures that confer ligand selectivity for galanin type II and III receptors” (PLoS ONE, 2020)
Ends that are not written are not given here.

Biological target: T1, GALR3 single mutant Y^103F (Homo sapiens, UniProt O60755, Y103F)
T1 construct: expressed in transfected cells; host or cells: HEK293 cells stably expressing Gqi
T1 sequence (O60755 1-368 Y103F): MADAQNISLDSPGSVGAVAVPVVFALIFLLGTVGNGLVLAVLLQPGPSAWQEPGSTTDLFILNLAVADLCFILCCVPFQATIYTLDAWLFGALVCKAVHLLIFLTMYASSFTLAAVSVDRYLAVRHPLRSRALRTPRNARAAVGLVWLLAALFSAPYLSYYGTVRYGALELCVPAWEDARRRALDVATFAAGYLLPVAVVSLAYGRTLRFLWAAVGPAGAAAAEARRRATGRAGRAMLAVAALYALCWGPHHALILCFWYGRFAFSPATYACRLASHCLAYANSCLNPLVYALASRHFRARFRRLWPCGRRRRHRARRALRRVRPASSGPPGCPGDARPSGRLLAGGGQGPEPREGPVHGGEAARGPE
Assay: SRE-luc luciferase assay, GALR3 Y103F
Format: cell-based
Conditions: GALR3 Y^103F; SRE-luc in HEK293 Gqi cells, ligand 6 h; mean ± S.E.; SEM
Description: For domain swapping between GALR2 and GALR3, individual cDNA fragments of interest were amplified by polymerase chain reaction (PCR) with Pfu polymerase (ELPIS Biotech, Daejeon, Korea) and two specific primers, one corresponding to the 5' or 3' end of the GALR2 or GALR3 cDNA and the other to the region of overlap between the two receptors. The two resulting fragments, one from GALR2 and the other from GALR3, were subjected to a second round of PCR to generate the chimeric cDNAs. To construct single, double-, triple-, pentuple-, hextuple-, and septuple-mutant receptors, amino acids of GALR3 were substituted for the amino acids at the corresponding positions in GALR2 using PCR-based site-directed mutagenesis. All of the chimeric constructs were cloned into the pcDNA3 expression vector at HindⅢ and XbaⅠ sites. The DNA sequences of the chimeras were verified by automatic sequencing. HEK293 cells stably expressing the Gqi construct, which allows induction of Gq-dependent signaling pathways upon activation of a Gi-coupled receptor [14, 30], were maintained in Dulbecco's Modified Eagle's Medium (DMEM) in the presence of 10% fetal bovine serum and 1% penicillin and streptomycin. For all transfections, 200 ng DNA (100 ng receptor and 100 ng SRE-luc) mixed with lipofectamine 2000 was applied to 60–80% confluent cells on a multi-well plate according to the manufacturer's instructions (Invitrogen, Carlsbad, CA). For luciferase assays, HEK293 Gqi cells were seeded on 48-well plates at a density of 2.5 × 10^4 cells/well one day before transfection. […] The luciferase activity in 50 μl cell extract was determined using a luciferase assay system according to the standard protocol for the Synergy 2 Multi-Mode Microplate Reader (BioTek, Winooski, VT, USA). […] The concentrations of agonists that induced half-maximal stimulation (EC50) were calculated using the GraphPad PRISM5 software (GraphPad software, Inc., San Diego, CA). […]

EC50: 676 ± 127 nM
Substance: NWTPNAMLYLKGAQ-NH2 [N^5-SPX]
